Data from the supplement of paper PMC10307832.

Columns and labels:
Test in all cases: relative viability (nuclei count vs DMSO), 5 days (fraction); higher = more cells survive
[1] = compound: CN(C)C[C@@H]1CCn2cc(c3ccccc32)C2=C(C(=O)NC2=O)c2cn(c3ccccc23)CCO1 [Ruboxistaurin] + CC(=O)Nc1cccc(-n2c(=O)n(C3CC3)c(=O)c3c(Nc4ccc(I)cc4F)n(C)c(=O)c(C)c32)c1 [Trametinib] (partner 0.02 µM)
Procedure, shortened: (§1)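 Lung cancer cell lines in 1536-well plates got either a single drug or a fixed anchor-drug dose together with five library-drug doses (not always all listed) in √10 steps, by pin tool, on the day after seeding. Nuclei were counted after 5 days, and relative viability is the treated-to-vehicle ratio of nuclei counts. Values are medians of duplicate plates.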

[2] = compound: CN(C)C[C@@H]1CCn2cc(c3ccccc32)C2=C(C(=O)NC2=O)c2cn(c3ccccc23)CCO1 [Ruboxistaurin] + C[C@@H](Oc1cc(-c2cnn(C3CCNCC3)c2)cnc1N)c1c(Cl)ccc(F)c1Cl [Crizotinib] (partner 1 µM)
Procedure, shortened: as §1

[3] = compound: CN(C)C[C@@H]1CCn2cc(c3ccccc32)C2=C(C(=O)NC2=O)c2cn(c3ccccc23)CCO1 [Ruboxistaurin] + C[C@]1(O)C[C@@H](c2nc(-c3ccc4ccc(-c5ccccc5)nc4c3)c3c(N)nccn32)C1 [Linsitinib] (partner 1 µM)
Procedure, shortened: as §1

[4] = compound: CN(C)C[C@@H]1CCn2cc(c3ccccc32)C2=C(C(=O)NC2=O)c2cn(c3ccccc23)CCO1 [Ruboxistaurin] + Nc1nc2[nH]cc(CCc3ccc(C(=O)N[C@@H](CCC(=O)O)C(=O)O)cc3)c2c(=O)[nH]1 [Pemetrexed] (partner 0.2 µM)
Procedure, shortened: as §1

Ruboxistaurin + Olaparib = compound: CN(C)C[C@@H]1CCn2cc(c3ccccc32)C2=C(C(=O)NC2=O)c2cn(c3ccccc23)CCO1 [Ruboxistaurin] + O=C(c1cc(Cc2n[nH]c(=O)c3ccccc23)ccc1F)N1CCN(C(=O)C2CC2)CC1 [Olaparib] (partner 8 µM)
Procedure, shortened: as §1

Cell Line | relative viability ([1]; first compound 0.08 µM) | relative viability ([1]; first compound 0.8 µM) | relative viability ([1]; first compound 2.53 µM) | relative viability ([1]; first compound 8 µM) | relative viability ([2]; first compound 0.08 µM) | relative viability ([2]; first compound 0.8 µM) | relative viability ([2]; first compound 2.53 µM) | relative viability ([2]; first compound 8 µM) | relative viability ([3]; first compound 0.08 µM) | relative viability ([3]; first compound 0.8 µM) | relative viability ([3]; first compound 2.53 µM) | relative viability ([3]; first compound 8 µM) | relative viability ([4]; first compound 0.08 µM) | relative viability ([4]; first compound 0.8 µM) | relative viability ([4]; first compound 2.53 µM) | relative viability ([4]; first compound 8 µM) | relative viability (Ruboxistaurin + Olaparib; first compound 0.08 µM) | relative viability (Ruboxistaurin + Olaparib; first compound 0.8 µM) | relative viability (Ruboxistaurin + Olaparib; first compound 2.53 µM) | relative viability (Ruboxistaurin + Olaparib; first compound 8 µM)
NCI-H1666 | 0.903 | 0.795 | 0.865 | 0.877 | 0.941 | 0.88 | 1.09 | 0.733 | 0.951 | 0.691 | 0.964 | 0.565 | 0.85 | 0.825 | 0.747 | 0.808 | 0.832 | 0.751 | 0.786 | 0.764
NCI-H1734 | 0.724 | 0.613 | 0.691 | 0.58 | 0.719 | 0.514 | 0.605 | 0.66 | 0.964 | 0.815 | 0.806 | 0.666 | 0.425 | 0.394 | 0.4 | 0.4 | 0.647 | 0.518 | 0.601 | 0.514
NCI-H1755 | 0.804 | 0.713 | 0.744 | 0.771 | 0.932 | 0.771 | 0.868 | 0.87 | 1.04 | 0.976 | 0.973 | 0.879 | 0.452 | 0.476 | 0.35 | 0.471 | 0.974 | 0.853 | 0.846 | 0.775
NCI-H1792 | 0.646 | 0.336 | 0.446 | 0.41 | 1.05 | 0.956 | 0.966 | 1.01 | 0.536 | 0.449 | 0.506 | 0.487 | 0.845 | 0.659 | 0.749 | 0.584 | 0.517 | 0.453 | 0.287 | 0.414
NCI-H1915 | 0.324 | 0.292 | 0.303 | 0.285 | 0.892 | 0.829 | 0.855 | 0.901 | 1.12 | 1.04 | 1.03 | 1.07 | 0.508 | 0.439 | 0.443 | 0.426 | 0.241 | 0.26 | 0.268 | 0.25
NCI-H1944 | 0.402 | 0.312 | 0.395 | 0.358 | 1.15 | 1.01 | 1.06 | 1.03 | 1.23 | 1.1 | 1.12 | 1.01 | 0.6 | 0.55 | 0.667 | 0.659 | 0.422 | 0.353 | 0.38 | 0.393
NCI-H1975 | 0.573 | 0.336 | 0.416 | 0.331 | 0.954 | 0.846 | 0.954 | 0.862 | 1.07 | 0.916 | 0.938 | 0.769 | 0.328 | 0.276 | 0.301 | 0.286 | 0.882 | 0.784 | 0.788 | 0.713
NCI-H1993 | 0.486 | 0.43 | 0.51 | 0.467 | 0.88 | 0.726 | 0.944 | 0.708 | 0.63 | 0.695 | 0.62 | 0.703 | 0.482 | 0.565 | 0.633 | 0.577 | 1.01 | 0.959 | 1.19 | 0.538
NCI-H2009 | 0.328 | 0.234 | 0.258 | 0.239 | 1 | 0.959 | 1.06 | 1.08 | 1.18 | 1.14 | 1.18 | 1.23 | 1.05 | 1.08 | 1.02 | 1.07 | 0.764 | 0.593 | 0.748 | 0.699
NCI-H2023 | 0.668 | 0.491 | 0.47 | 0.405 | 0.691 | 0.588 | 0.565 | 0.503 | 0.721 | 0.53 | 0.616 | 0.492 | 0.228 | 0.188 | 0.224 | 0.151 | 0.519 | 0.458 | 0.447 | 0.296
NCI-H2085 | 0.67 | 0.538 | 0.64 | 0.502 | 1 | 0.684 | 0.874 | 0.917 | 1.01 | 0.806 | 0.861 | 0.809 | 1.07 | 0.868 | 0.944 | 0.904 | 0.808 | 0.703 | 0.769 | 0.909
NCI-H2087 | 0.202 | 0.135 | 0.205 | 0.186 | 0.898 | 0.735 | 1.08 | 1.15 | 1.13 | 0.874 | 0.98 | 0.884 | 0.641 | 0.679 | 0.662 | 0.693 | 0.601 | 0.62 | 0.692 | 0.57
NCI-H2126 | 0.617 | 0.552 | 0.617 | 0.541 | 1.03 | 0.92 | 1.07 | 1 | 0.744 | 0.641 | 0.749 | 0.665 | 0.699 | 0.65 | 0.674 | 0.623 | 0.888 | 0.887 | 0.915 | 0.936
NCI-H2228 | 0.517 | 0.379 | 0.525 | 0.368 | 0.453 | 0.427 | 0.316 | 0.3 | 0.847 | 0.481 | 0.681 | 0.751 | 0.387 | 0.335 | 0.337 | 0.322 | 0.643 | 0.564 | 0.889 | 0.696
NCI-H2347 | 0.306 | 0.293 | 0.256 | 0.167 | 0.725 | 0.581 | 0.568 | 0.651 | 0.943 | 0.902 | 0.92 | 0.984 | 0.45 | 0.413 | 0.372 | 0.44 | 0.636 | 0.614 | 0.581 | 0.451
NCI-H2405 | 0.727 | 0.597 | 0.727 | 0.616 | 0.901 | 0.823 | 0.838 | 0.874 | 1.01 | 0.866 | 1.01 | 0.902 | 1.13 | 1.04 | 1.11 | 1.01 | 0.918 | 0.774 | 0.878 | 0.874
